Reference: patent US6395783B1, “Treatment of PCP addiction and PCP addiction-related behavior” (Brookhaven Science Associates, LLC, priority 2000, dated 2002)

How the values were obtained:
[1] = tested on: extracellular DA concentrations in the prefrontal cortex (PFC); assay: In vivo microdialysis of PCP-induced extracellular DA in the prefrontal cortex of freely moving rats; parameters: species or system rat (Sprague-Dawley); conditions: p<0.01
Description: (§1) We explored the effects of increased endogenous GABA activity on PCP-induced extracellular DA concentrations in the prefrontal cortex (PFC) and nucleus accumbens (NAcc) of freely moving rats.
(§2) All animals were used under an IACUC-approved protocol and with strict adherence to the NIH guidelines. Adult male Sprague-Dawley rats (200-300 g, Taconic Farms), housed in the animals care facility under 12:12 light/dark conditions, were placed into 6 groups (n=3-6), anesthetized and siliconized guide cannulae were stereotactically implanted into the right NAcc (2.0 mm anterior and 1.0 mm lateral to bregms, and 7.0 mm ventral to the cortical surface) and prefrontal cortex (PFC) at least 4 days prior to study. Microdialysis probes (2.0 mm, Bioanalytical Systems, BAS, West Lafayette, Ind.) were positioned within the guide cannulae and artificial cerebrospinal fluid (ACSF, 155.0 mM […]) was administered through the probe using a CMA/100 microinfusion pump (BAS) at a flow rate of […].
Animals were placed in bowls, and probes were inserted and flushed with ACSF overnight. On the day of the study, a minimum of three samples were injected to determine baseline stability. Samples were collected for 20 min. and injected on-line (CMA/160, BAS). […]

[2] = tested on: extracellular DA concentrations in the nucleus accumbens (NAcc); assay: In vivo microdialysis of PCP-induced extracellular DA in the nucleus accumbens of freely moving rats; parameters: species or system rat (Sprague-Dawley)
Description: as §1, §2
Animals were placed in bowls, and probes were inserted and flushed with ACSF overnight. On the day of the study, a minimum of three samples were injected to determine baseline stability. Samples were collected for 20 min. and injected on-line (CMA/160, BAS). The average dopamine concentration of these three stable samples was defined as control (100%), and all subsequent treatment values were transformed to a percentage of that control. Upon establishing a stable baseline, the PCP was administered by intraperitoneal (i.p.) injection. The high performance liquid chromatography (HPLC) system consists of a BAS reverse-phase column (3.0μ C-18), a BAS LC-4C electrochemical transducer with a dual/glassy carbon electrode set at 650 mV, a computer that analyzes data on-line using a commercial software package (Chromograph Bioanalytical Systems), and a dual pen chart recorder. The mobile phase (flow rate 1.0 ml/min) consisted of 7.0% methanol, 50 mM sodium phosphate monobasic, 1.0 mM sodium octyl sulfate, and 0.1 mm […], pH 4.0. DA eluted at 7.5 min.
Gamma-vinyl GABA (GVG), an irreversible inhibitor of GABA-transaminase, was administered by intraperitoneal injection 2.5 hours prior to PCP (7 mg/kg). In all studies, animals were placed in the microdialysis bowls the night before the experiment and artificial cerebrospinal fluid (ACSF) was perfused through the microdialysis probes at a flow rate of 2.0 μl/min. At the end of each study, animals were sacrificed and their brains were removed and sectioned for probe placement verification.
Levels of extracellular DA were sampled from the NAcc continuously using a stereoaxically implanted probe. […]

[3] = tested on: synaptic dopamine (11C-raclopride binding); assay: PET study with 11C-raclopride, GVG and PCP in primates; assay type: in vivo, Papio anubis baboons

Row | SMILES | attenuation of PFC DA activity (response to PCP) ([1]; GVG pretreatment (300 mg/kg group) i.p. 2.5 hours prior to PCP (7 mg/kg)) | attenuation of the DA response to PCP in the NAcc ([2]; GVG 150 mg/kg i.p. 2.5 hours prior to PCP (7 mg/kg)) | attenuation of the DA response to PCP in the NAcc ([2]; GVG 300 mg/kg i.p. 2.5 hours prior to PCP (7 mg/kg), p<0.01) | attenuation of the DA response to PCP in the NAcc ([2]; GVG 500 mg/kg i.p. 2.5 hours prior to PCP (7 mg/kg), p<0.001) | effect on PCP-induced increases in neostriatal synaptic DA assessed by PET ([3]; primate (baboon) brain) | effect on PCP-induced diminution of 11C-raclopride binding (increase in synaptic dopamine) ([3]; prior intravenous 300 mg/kg GVG, PCP 1 mg/kg, four baboons, all cases) | increase of DA concentrations above baseline in the PFC ([1]; PCP alone, 7 mg/kg i.p., baseline = 100%) | increase of DA concentrations above baseline in the NAcc ([2]; PCP alone, 7 mg/kg i.p., baseline = 100%, p<0.01)
1 | C=CC(N)CCC(=O)O (racemic) [GVG, 4-amino-5-hexanoic acid] | 67% | no significant inhibition | 62% | 67% | significantly attenuated | prevented the diminution of ^11C-ralcopride binding | – | –
2 | c1ccc(C2(N3CCCCC3)CCCCC2)cc1 [PCP, Phencyclidine] | – | – | – | – | – | – | 407% | 117%
